6 molecules from patent US20260317319A1, “NOVEL ERGOLINES AND METHODS OF TREATING MOOD DISORDERS” (Gilgamesh Pharma Inc., priority 2023, published 2026) can be followed below.

SMILES strings stand for the structures. pEC50, pKi: −log10 of the molar value. Where two headings read alike, the source gives them in different places.

The nature of data set [1]: in vitro. The data set is classed as in vitro ADME, mouse. Conditions: mouse, microsomes, MLM (male CD-1) 0.50 mg/mL, NADPH 1 mM, 1 μM compound, pH 7.4, 37° C., 60 min; for microsomal CLint: read-out: Intrinsic clearance (Clint); for half-life: read-out: half-life (t1/2). The source says:
MLM Stability Pooled MLM from male CD-1 mice (BIOIVT M00501) were used.

The target in the next data set is T1, 5-HT1A receptor (Homo sapiens, UniProt P08908).
T1 construct: expressed in transfected cells; host or cells: CHO cells, stably transfected
T1 sequence (P08908 1-422): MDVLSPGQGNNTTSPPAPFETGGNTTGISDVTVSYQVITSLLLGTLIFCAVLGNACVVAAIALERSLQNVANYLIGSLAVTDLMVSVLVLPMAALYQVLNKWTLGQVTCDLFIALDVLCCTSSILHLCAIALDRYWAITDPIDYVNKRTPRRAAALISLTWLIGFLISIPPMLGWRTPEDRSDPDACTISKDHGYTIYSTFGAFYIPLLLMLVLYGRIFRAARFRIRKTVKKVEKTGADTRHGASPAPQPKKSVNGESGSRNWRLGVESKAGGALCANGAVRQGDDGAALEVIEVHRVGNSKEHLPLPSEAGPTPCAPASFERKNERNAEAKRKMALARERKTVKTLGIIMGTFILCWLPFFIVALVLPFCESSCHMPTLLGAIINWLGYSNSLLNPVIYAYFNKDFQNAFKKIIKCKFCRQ
The data set is described as follows: cell-based. Conditions: agonist, Ca2+ flux; for Emax: CHO, CHO cells with Gα15, max dose, read-out: 5-HT1A % Act @ Max Dose; for pEC50: CHO cells with Gα15. The procedure, abridged: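 Using HEK293 lines for the 5-HT2 subtypes and Gα15-coupled CHO cells for 5-HT1A, compounds were tested as agonists. Fluorescent Ca2+ signal followed dye loading (Fluo-4 Direct, 2.5 mM final probenecid, 50 min, 37 °C).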
A general note: A change in cytosolic calcium serves as a functional read-out for many receptors and channels.

Data set [2] has as its target T2, 5-HT2A receptor (Homo sapiens, UniProt P28223). The data set is described as follows: cell-based. The format is cell-based. The arrangement: expressed in transfected cells; host or cells: HEK293, stably transfected. Conditions: Ca2+ flux; for Emax: HEK293, agonist, HEK293, max dose, read-out: 5-HT2A % Act @ Max Dose; for pEC50: agonist, HEK293. The procedure, abridged:
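FLIPR Ca2+ flux agonist assay using stably transfected HEK293 (5-HT2A, 5-HT2B) or CHO cells co-expressing Gα15 (5-HT1A). Cells loaded with Fluo-4 Direct plus 2.5 mM probenecid (final) for 50 min at 37 °C, then compound added and fluorescence read.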

Data set [3] in a line: in vitro. The format is in vitro ADME, human. Conditions: human, microsomes, HLM 0.50 mg/mL, NADPH 1 mM, 1 μM compound, pH 7.4, 37° C., 60 min; for microsomal CLint: read-out: Intrinsic clearance (Clint); for half-life: read-out: half-life (t1/2).
In another data set the target is T3, 5-HT1B receptor (Homo sapiens, UniProt P28222).
T3 construct: expressed in transfected cells
T3 sequence (P28222 whole entry): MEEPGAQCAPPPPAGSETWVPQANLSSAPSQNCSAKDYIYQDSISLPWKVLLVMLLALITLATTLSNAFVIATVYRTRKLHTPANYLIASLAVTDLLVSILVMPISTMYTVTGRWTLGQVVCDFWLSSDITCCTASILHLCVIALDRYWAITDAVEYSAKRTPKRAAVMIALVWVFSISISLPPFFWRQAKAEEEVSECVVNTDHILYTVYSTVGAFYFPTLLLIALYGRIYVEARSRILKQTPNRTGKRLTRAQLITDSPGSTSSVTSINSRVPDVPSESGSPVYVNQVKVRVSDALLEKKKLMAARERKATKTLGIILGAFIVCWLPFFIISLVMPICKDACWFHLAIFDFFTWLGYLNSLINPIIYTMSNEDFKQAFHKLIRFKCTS
The data set is described as follows: cAMP accumulation functional assay at 5-HT1B. The data set is classed as cell-based. Conditions: agonist, cAMP accumulation; for Emax: max dose, read-out: 5-HT1B % Act @ Max Dose. On the procedure:
Functional Assay at 5-HT1B. Agonist activity at 5-HT1B was determined using a CAMP accumulation protocol at WuXi AppTec (Hong Kong) Limited according to their standard protocols. Briefly, stably transfected cells were plated in an OptiPlate-384 well plate, incubated at RT for 60 mins, and cAMP standard solution (800 nM, 10 μL) was added to the blank well. Then, 10 μL detection reagent was added to each well, the plate incubated for 60 mins at RT, and the plate read using En Vision.
For orientation: Changes in cAMP serve as a functional read-out for many G protein-coupled receptors.

The target in another data set is T4, 5-HT2B receptor (Homo sapiens, UniProt P41595).
T4 construct: expressed in transfected cells; host or cells: HEK293, stably transfected
T4 sequence (P41595 whole entry): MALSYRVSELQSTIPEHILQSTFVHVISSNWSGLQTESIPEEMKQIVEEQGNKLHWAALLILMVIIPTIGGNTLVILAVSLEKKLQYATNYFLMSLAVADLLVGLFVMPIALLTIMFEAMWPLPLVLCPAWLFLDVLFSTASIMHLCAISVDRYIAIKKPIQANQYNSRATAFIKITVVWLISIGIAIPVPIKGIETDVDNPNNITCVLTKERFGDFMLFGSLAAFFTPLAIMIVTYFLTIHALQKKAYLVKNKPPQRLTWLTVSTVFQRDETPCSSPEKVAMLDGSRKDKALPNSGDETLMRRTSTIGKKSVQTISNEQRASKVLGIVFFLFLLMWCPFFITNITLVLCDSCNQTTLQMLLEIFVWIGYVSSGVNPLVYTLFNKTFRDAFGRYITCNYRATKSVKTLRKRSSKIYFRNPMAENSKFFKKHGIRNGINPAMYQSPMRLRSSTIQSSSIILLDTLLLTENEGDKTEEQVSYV
The data set is described as follows: cell-based. The data set is classed as cell-based. Conditions: Ca2+ flux; for Emax: HEK293, agonist, HEK293, max dose, read-out: 5-HT2B % Act @ Max Dose; for pEC50: agonist, HEK293. Summed up: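 FLIPR Tetra fluorescence read-out of calcium flux after compound addition. Receptor-expressing stable lines were used (HEK293 for 2A/2B; CHO with Gα15 for 1A), dye-loaded with Fluo-4 Direct and 2.5 mM final probenecid, 50 min at 37 °C.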

Data set [4] is described as follows: in vitro. Conditions: rat, microsomes, RLM (male Sprague-Dawley) 0.50 mg/mL, NADPH 1 mM, 1 μM compound, pH 7.4, 37° C., 60 min; for microsomal CLint: read-out: Intrinsic clearance (Clint); for half-life: read-out: half-life (t1/2). The data set is classed as in vitro ADME, rat. The source says:
RLM Stability Pooled RLM from male Sprague-Dawley rats (Xenotech R1000) were used.

For data set [5], the target named is T2, 5-HT2A receptor. The data set is described as follows: biochemical. The data set is classed as binding. The arrangement: expressed in transfected cells; host or cells: HEK293, stably transfected. Conditions: for pKi: [3H]ketanserin 1 nM, HEK293 stable cell line, 1 h, 25 °C. Summed up: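 Affinity was measured in radioligand binding experiments using [^3H]ketanserin as the labelled ligand, following methods adapted from published procedures.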

For data set [6], the target named is T2, 5-HT2A receptor. The data set is described as follows: cell-based. The data set is classed as cell-based. Conditions: agonist, beta-arrestin recruitment; for pEC50: PathHunter, read-out: 5-HT2A Arrestin EC50; for Emax: max dose, read-out: 5-HT2A Arrestin % Act @ Max Dose. Here is the method: Arrestin Functional Assay at 5-HT2A. Recruitment of beta-arrestin was determined using a PathHunter assay at Eurofins DiscoverX (Fremont, CA) according to their standard protocols. PathHunter GPCR beta-arrestin assays take advantage of DiscoverX's proprietary Enzyme Fragment Complementation technology. The GPCR is fused in frame with a small enzyme donor fragment ProLink™ (PK) and co-expressed in cells stably expressing a fusion protein of beta-arrestin and the larger, N-terminal deletion mutant of beta-galactosidase. Activation of the GPCR (5-HT2A receptor in this case) stimulates binding of beta-arrestin to the PK-tagged GPCR and forces complementation of the two enzyme fragments, resulting in the formation of an active beta-galactosidase enzyme. This interaction leads to an increase in enzyme activity that can be measured using chemiluminescent PathHunter Detection Reagents. Briefly, PathHunter cells expressing 5-HT2A receptors were seeded in a volume of 20 μL into 384-well plates and incubated at 37° C. for the appropriate time prior to testing. […] Plates were then imaged on a microplate reader and the agonist activity was calculated using the following formula: % Activity=100%×(mean RLU of test sample-mean RLU of vehicle control)/(mean MAX control ligand-mean RLU of vehicle control), where RLU=relative light units.
For orientation: Arrestin recruitment assays detect the binding of arrestin to an activated receptor.

T2 sequence (P28223 whole entry): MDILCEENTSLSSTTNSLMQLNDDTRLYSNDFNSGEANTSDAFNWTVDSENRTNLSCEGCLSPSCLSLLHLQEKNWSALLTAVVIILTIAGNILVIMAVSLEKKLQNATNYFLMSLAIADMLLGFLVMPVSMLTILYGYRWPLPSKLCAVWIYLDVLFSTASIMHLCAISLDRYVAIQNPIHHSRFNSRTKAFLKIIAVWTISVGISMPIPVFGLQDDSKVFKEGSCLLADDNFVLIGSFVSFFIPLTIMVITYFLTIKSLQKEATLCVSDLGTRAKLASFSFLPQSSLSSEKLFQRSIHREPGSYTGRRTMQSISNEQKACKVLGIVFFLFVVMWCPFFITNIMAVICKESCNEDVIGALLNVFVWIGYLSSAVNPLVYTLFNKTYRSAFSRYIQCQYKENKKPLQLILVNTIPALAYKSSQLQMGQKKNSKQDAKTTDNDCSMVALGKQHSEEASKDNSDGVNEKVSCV

As for `CCN(CC)C(=O)[C@@H]1C=C2c3cccc4[nH]cc(c34)C[C@H]2N(Cc2cccnc2)C1` [Compound 55, (6aR,9R)—N,N-diethyl-7-(pyridin-3-ylmethyl)-4,6,6a,7,8,9-hexahydroindolo[4,3-fg]quinoline-9-carboxamide], the microsomal CLint was found to be 543 µL/min/mg in the data set “in vitro [1]”, 56 µL/min/mg in “in vitro [3]” and 103 µL/min/mg in the data set “in vitro [4]”. For the same molecule, the half-life in the data set “in vitro [1]” was 2.6 min; in “in vitro [3]”, 24.8 min; in “in vitro [4]”, 13.4 min. For the same molecule, the Emax at 5-HT1A receptor was found to be 108%; on 5-HT2A receptor [2], 87.8%; at 5-HT1B receptor, 82.5%; at 5-HT2B receptor, 25.7%. Further, the pEC50 – broadly, −log10 of the EC50, conventionally taken in molar units – is 5.39 at 5-HT1A receptor, 6.80 on 5-HT2A receptor [2], 6.24 at 5-HT1B receptor and < 4.00 on 5-HT2B receptor. Moreover, at 5-HT2A receptor [5], the pKi (commonly the negative decadic logarithm of the Ki, by convention in mol/L) was 7.40.

Regarding `CCNC(=O)[C@@H]1C=C2c3cccc4[nH]cc(c34)C[C@H]2N(Cc2cccc(OC)c2)C1` [Compound 63, (6aR,9R)—N-ethyl-7-(3-methoxybenzyl)-4,6,6a,7,8,9-hexahydroindolo[4,3-fg]quinoline-9-carboxamide], the microsomal CLint in “in vitro [1]” is 1610 µL/min/mg; in the data set “in vitro [3]”, 442 µL/min/mg; in the data set “in vitro [4]” it was 645 µL/min/mg. Also, the results for the half-life in the data set “in vitro [1]”, in “in vitro [3]” and in “in vitro [4]” were 0.9 min, 3.1 min and 2 min, respectively. Also, the Emax on 5-HT1A receptor is 88.4%; at 5-HT2A receptor [2], 91%; at 5-HT2A receptor [6] it was 64%; on 5-HT1B receptor, 45.7%; at 5-HT2B receptor, -0.31%. Besides, the pEC50 at 5-HT1A receptor is 5.21; at 5-HT2A receptor [2] it was 7.01; on 5-HT2A receptor [6] it was 7.90; at 5-HT1B receptor, < 5.00; on 5-HT2B receptor it was < 5.00. The pKi at 5-HT2A receptor [5] is 7.95.

In the case of `CCNC(=O)[C@@H]1C=C2c3cccc4[nH]cc(c34)C[C@H]2N(Cc2cccc(O)c2)C1` [Compound 64, (6aR,9R)—N-ethyl-7-(3-hydroxybenzyl)-4,6,6a,7,8,9-hexahydroindolo[4,3-fg]quinoline-9-carboxamide], the microsomal CLint in “in vitro [1]” was found to be 312 µL/min/mg; in the data set “in vitro [3]”, 100 µL/min/mg; in “in vitro [4]”, 222 µL/min/mg. The half-life was determined as 4.4 min in “in vitro [1]”, 13.8 min in “in vitro [3]” and 6.2 min in “in vitro [4]”. Besides, the Emax turned out to be 87% at 5-HT1A receptor; 75.8% on 5-HT2A receptor [2]; 52% on 5-HT2A receptor [6]; 68.8% on 5-HT1B receptor; 1.49% on 5-HT2B receptor. Besides, the pEC50 at 5-HT1A receptor was 6.37; at 5-HT2A receptor [2], 7.27; on 5-HT2A receptor [6], 7.63; at 5-HT1B receptor it was 5.35; at 5-HT2B receptor it was < 5.00. For the same molecule, on 5-HT2A receptor [5], the pKi was 7.92.

With `CCN(CC)C(=O)[C@@H]1C=C2c3cccc4[nH]cc(c34)C[C@H]2N(Cc2ccc(F)c(OC)c2)C1` [Compound 60, (6aR,9R)—N,N-diethyl-7-(4-fluoro-3-methoxybenzyl)-4,6,6a,7,8,9-hexahydroindolo[4,3-fg]quinoline-9-carboxamide], the values for the microsomal CLint in “in vitro [1]”, in “in vitro [3]” and in the data set “in vitro [4]” were 295 µL/min/mg, 69.1 µL/min/mg and 152 µL/min/mg, respectively. In addition, the half-life in the data set “in vitro [1]” was 4.7 min; in the data set “in vitro [3]”, 20.1 min; in the data set “in vitro [4]”, 9.1 min. For the same molecule, the Emax at 5-HT1A receptor turned out to be 53.1%; on 5-HT2A receptor [2], 102%; on 5-HT1B receptor it was 31%; on 5-HT2B receptor, 23.8%. In addition, the pEC50 at 5-HT1A receptor was 4.44; on 5-HT2A receptor [2] it was 5.86; on 5-HT1B receptor, < 5.00; on 5-HT2B receptor it was < 4.00. The pKi on 5-HT2A receptor [5] is 8.21.

For `CCN(CC)C(=O)[C@@H]1C=C2c3cccc4[nH]cc(c34)C[C@H]2N(Cc2ccncc2)C1` [Compound 51, (6aR,9R)—N,N-diethyl-7-(pyridin-4-ylmethyl)-4,6,6a,7,8,9-hexahydroindolo[4,3-fg]quinoline-9-carboxamide], the microsomal CLint in “in vitro [1]” stood at 480 µL/min/mg; in “in vitro [3]” it was 34.3 µL/min/mg; in the data set “in vitro [4]” it was 73.6 µL/min/mg. In addition, the half-life in “in vitro [1]” came out at 2.9 min; in the data set “in vitro [3]” it was 40.4 min; in “in vitro [4]” it was 18.8 min. In addition, the Emax worked out at 100% on 5-HT1A receptor, 102% on 5-HT2A receptor [2], 89.1% at 5-HT1B receptor and 19.3% at 5-HT2B receptor. Besides, the pEC50 on 5-HT1A receptor was 5.84; on 5-HT2A receptor [2], 7.01; at 5-HT1B receptor it was 6.72; at 5-HT2B receptor it was < 4.00. At 5-HT2A receptor [5], this molecule had a pKi of 7.81.

On to `CCCN1C[C@H](C(=O)N(CC)CC)C=C2c3cccc4c3C(CN4)C[C@H]21` (mixture of isomers) [Compound 36, (6aR,9R)—N,N-diethyl-7-propyl-4,5,5a,6,6a,7,8,9-octahydroindolo[4,3-fg]quinoline-9-carboxamide], for which the Emax on 5-HT1A receptor was determined as 88.7%; at 5-HT2A receptor [2], 77.5%; on 5-HT1B receptor it was 97.5%; on 5-HT2B receptor, 111%. In addition, the “potency in receptor binding” value on 5-HT2A receptor [5] (radioligand binding, 5-HT2A) is reported as “reduced in potency compared to their dehydro counterparts”.
